From the supplement of paper PMC11208160

Test: recombinant UMI read abundance after kanamycin selection (control-corrected) (log10(CPM+1)); higher = more efficient recombination; extreme values may be limits of the assay; sequences stand for … in AGTGCAGAGAAAATCGGCCAGTTTTCTCTGCCTGCAGTCCGCATGCCGTGGGACCCCTTGGGTTCTAACCTGTTGCCTAGATTTATGCAGCGGACTGCCTTTCTCCCAAAGTGATAAACCGG…AGGTTGGTTTCACT; site = the 11-nt donor
Procedure, shortened: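 The measure is log10(CPM+1) for recombinant UMIs. These were PCR-amplified across the donor–target junction and sequenced after Escherichia coli carrying a donor and donor-binding-loop pair library and a target plasmid with T7-inducible IS621 bridge recombinase was plated on IPTG (0.07 mM) plus kanamycin or unselected. CPM were averaged over two replicates and scaled by control-derived factors.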
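Note: IS621 bridge recombinase in Escherichia coli cells against a fixed T5 target plasmid.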

Sequence	recombinant UMI read abundance (log10)
GAAACCTCATGGACCGGTTTTCCCGGTAATCCGTATTTGGG (site GAAACCTCTCC)	0.698
GAACGTGCATGGACCGGTTTTCCCGGTAATCCGTATTTGTC (site GAACGTGCTGA)	2.1
GAAGAGTCATGGACCGGTTTTCCCGGTAATCCGTATTTGTT (site GAAGAATCTAA)	3.37
GAAGAGTCATGGACCGGTTTTCCCGGTAATCCGTATTTGTT (site GAAGACTCTAA)	0.941
GAAGAGTCATGGACCGGTTTTCCCGGTAATCCGTATTTGTT (site GAAGAGTCTAA)	2.91
GAAGAGTCATGGACCGGTTTTCCCGGTAATCCGTATTTGTT (site GAAGATTCTAA)	0.417
GAAGATTCATGGACCGGTTTTCCCGGTAATCCGTATTTGCT (site GAAGATTCTAA)	0.178
GAAGATTCATGGACCGGTTTTCCCGGTAATCCGTATTTGCT (site GAAGATTCTAC)	0
GAAGATTCATGGACCGGTTTTCCCGGTAATCCGTATTTGCT (site GAAGATTCTAG)	2.54
GAAGATTCATGGACCGGTTTTCCCGGTAATCCGTATTTGCT (site GAAGATTCTAT)	0
GAAGATTCATGGACCGGTTTTCCCGGTAATCCGTATTTGTC (site GAAGATTCTAA)	0.564
GAAGATTCATGGACCGGTTTTCCCGGTAATCCGTATTTGTC (site GAAGATTCTCA)	0
GAAGATTCATGGACCGGTTTTCCCGGTAATCCGTATTTGTC (site GAAGATTCTGA)	2.29
GAAGATTCATGGACCGGTTTTCCCGGTAATCCGTATTTGTC (site GAAGATTCTTA)	0.965
GAAGCATCATGGACCGGTTTTCCCGGTAATCCGTATTTGCA (site GAAGCATCTTG)	2.67
GAAGCGTCATGGACCGGTTTTCCCGGTAATCCGTATTTGTA (site GAAGCGTCTTA)	2.88
GAAGGGTCATGGACCGGTTTTCCCGGTAATCCGTATTTGTT (site GAAGGGTCTAA)	2.74
GAAGTAGCATGGACCGGTTTTCCCGGTAATCCGTATTTGGG (site GAAGTAGCTCC)	0.618
GAAGTCGCATGGACCGGTTTTCCCGGTAATCCGTATTTGCG (site GAAGTCGCTCG)	0.562
GAAGTCGCATGGACCGGTTTTCCCGGTAATCCGTATTTGCG (site GCAGTCGCTCG)	0.0126
GAAGTCGCATGGACCGGTTTTCCCGGTAATCCGTATTTGCG (site GGAGTCGCTCG)	0.0249
GAAGTCGCATGGACCGGTTTTCCCGGTAATCCGTATTTGCG (site GTAGTCGCTCG)	0.023
GAAGTTTCATGGACCGGTTTTCCCGGTAATCCGTATTTGTT (site GAAGATTCTAA)	0
GAAGTTTCATGGACCGGTTTTCCCGGTAATCCGTATTTGTT (site GAAGCTTCTAA)	0.43
GAAGTTTCATGGACCGGTTTTCCCGGTAATCCGTATTTGTT (site GAAGGTTCTAA)	0

Sequence	recombinant UMI read abundance (log10)
GAAGTTTCATGGACCGGTTTTCCCGGTAATCCGTATTTGTT (site GAAGTTTCTAA)	1.76
GAATACTCATGGACCGGTTTTCCCGGTAATCCGTATTTGAT (site GAATACTCTAT)	2.8
GAATATTCATGGACCGGTTTTCCCGGTAATCCGTATTTGTT (site GAAAATTCTAA)	0
GAATATTCATGGACCGGTTTTCCCGGTAATCCGTATTTGTT (site GAACATTCTAA)	0
GAATATTCATGGACCGGTTTTCCCGGTAATCCGTATTTGTT (site GAAGATTCTAA)	0
GAATATTCATGGACCGGTTTTCCCGGTAATCCGTATTTGTT (site GAATATTCTAA)	0.948
GAATCGCCATGGACCGGTTTTCCCGGTAATCCGTATTTGCA (site GAATAGCCTTG)	0.613
GAATCGCCATGGACCGGTTTTCCCGGTAATCCGTATTTGCA (site GAATCGCCTTG)	0.687
GAATCGCCATGGACCGGTTTTCCCGGTAATCCGTATTTGCA (site GAATGGCCTTG)	0.345
GAATCGCCATGGACCGGTTTTCCCGGTAATCCGTATTTGCA (site GAATTGCCTTG)	0
GAATGACCATGGACCGGTTTTCCCGGTAATCCGTATTTGCA (site GAATGACCTTG)	1.13
GAATGACCATGGACCGGTTTTCCCGGTAATCCGTATTTGCA (site GAATGCCCTTG)	0
GAATGACCATGGACCGGTTTTCCCGGTAATCCGTATTTGCA (site GAATGGCCTTG)	1.02
GAATGACCATGGACCGGTTTTCCCGGTAATCCGTATTTGCA (site GAATGTCCTTG)	0
GAATGCTCATGGACCGGTTTTCCCGGTAATCCGTATTTGAA (site AAATGCTCTTT)	0.536
GAATGCTCATGGACCGGTTTTCCCGGTAATCCGTATTTGAA (site CAATGCTCTTT)	1.08
GAATGCTCATGGACCGGTTTTCCCGGTAATCCGTATTTGAA (site GAATGCTCTTT)	2.05
GAATGCTCATGGACCGGTTTTCCCGGTAATCCGTATTTGAA (site TAATGCTCTTT)	0.684
GAATGGCCATGGACCGGTTTTCCCGGTAATCCGTATTTGCA (site AAATGGCCTTG)	0
GAATGGCCATGGACCGGTTTTCCCGGTAATCCGTATTTGCA (site CAATGGCCTTG)	0
GAATGGCCATGGACCGGTTTTCCCGGTAATCCGTATTTGCA (site GAAAGGCCTTG)	0
GAATGGCCATGGACCGGTTTTCCCGGTAATCCGTATTTGCA (site GAACGGCCTTG)	0
GAATGGCCATGGACCGGTTTTCCCGGTAATCCGTATTTGCA (site GAAGGGCCTTG)	0
GAATGGCCATGGACCGGTTTTCCCGGTAATCCGTATTTGCA (site GAATAGCCTTG)	0.926
GAATGGCCATGGACCGGTTTTCCCGGTAATCCGTATTTGCA (site GAATCGCCTTG)	0.248

Sequence	recombinant UMI read abundance (log10)
GAATGGCCATGGACCGGTTTTCCCGGTAATCCGTATTTGCA (site GAATGACCTTG)	0
GAATGGCCATGGACCGGTTTTCCCGGTAATCCGTATTTGCA (site GAATGCCCTTG)	0.0091
GAATGGCCATGGACCGGTTTTCCCGGTAATCCGTATTTGCA (site GAATGGACTTG)	0.018
GAATGGCCATGGACCGGTTTTCCCGGTAATCCGTATTTGCA (site GAATGGCCTAG)	0
GAATGGCCATGGACCGGTTTTCCCGGTAATCCGTATTTGCA (site GAATGGCCTCG)	0.0219
GAATGGCCATGGACCGGTTTTCCCGGTAATCCGTATTTGCA (site GAATGGCCTGG)	0
GAATGGCCATGGACCGGTTTTCCCGGTAATCCGTATTTGCA (site GAATGGCCTTA)	0.0192
GAATGGCCATGGACCGGTTTTCCCGGTAATCCGTATTTGCA (site GAATGGCCTTC)	0.0145
GAATGGCCATGGACCGGTTTTCCCGGTAATCCGTATTTGCA (site GAATGGCCTTG)	0
GAATGGCCATGGACCGGTTTTCCCGGTAATCCGTATTTGCA (site GAATGGCCTTT)	0.0193
GAATGGCCATGGACCGGTTTTCCCGGTAATCCGTATTTGCA (site GAATGGGCTTG)	0.00704
GAATGGCCATGGACCGGTTTTCCCGGTAATCCGTATTTGCA (site GAATGGTCTTG)	0.0295
GAATGGCCATGGACCGGTTTTCCCGGTAATCCGTATTTGCA (site GAATGTCCTTG)	0
GAATGGCCATGGACCGGTTTTCCCGGTAATCCGTATTTGCA (site GAATTGCCTTG)	0
GAATGGCCATGGACCGGTTTTCCCGGTAATCCGTATTTGCA (site GACTGGCCTTG)	0.0119
GAATGGCCATGGACCGGTTTTCCCGGTAATCCGTATTTGCA (site GAGTGGCCTTG)	0
GAATGGCCATGGACCGGTTTTCCCGGTAATCCGTATTTGCA (site GATTGGCCTTG)	0
GAATGGCCATGGACCGGTTTTCCCGGTAATCCGTATTTGCA (site GCATGGCCTTG)	0
GAATGGCCATGGACCGGTTTTCCCGGTAATCCGTATTTGCA (site GGATGGCCTTG)	0
GAATGGCCATGGACCGGTTTTCCCGGTAATCCGTATTTGCA (site GTATGGCCTTG)	0
GAATGGCCATGGACCGGTTTTCCCGGTAATCCGTATTTGCA (site TAATGGCCTTG)	0.00558
GAATGGGCATGGACCGGTTTTCCCGGTAATCCGTATTTGCA (site GAATGGACTTG)	1.98
GAATGGGCATGGACCGGTTTTCCCGGTAATCCGTATTTGCA (site GAATGGCCTTG)	0.00596
GAATGGGCATGGACCGGTTTTCCCGGTAATCCGTATTTGCA (site GAATGGGCTTG)	2.42
GAATGGGCATGGACCGGTTTTCCCGGTAATCCGTATTTGCA (site GAATGGTCTTG)	2.23
